According to ChEMBL document CHEMBL4002566, “S-substituted 3,5-dinitrophenyl 1,3,4-oxadiazole-2-thiols and tetrazole-5-thiols as highly efficient antitubercular agents” (Eur J Med Chem, 2017):
Values after ≈ are worked out from the molar mass of the structure shown.

Key:
Mycobacterium avium [1] = test: Antimycobacterial activity against Mycobacterium avium CNCTC My 330/88 after 21 days by micromethod; type: functional; settings: CNCTC My 330/88, 504 h
[2] = tested on: Mycobacterium tuberculosis; test: Antimycobacterial activity against Mycobacterium tuberculosis CNCTC My 331/88 after 14 days by micromethod; type: functional; settings: CNCTC My 331/88, 336 h
Mycobacterium avium [3] = test: Antimycobacterial activity against Mycobacterium avium CNCTC My 330/88 after 14 days by micromethod; type: functional; settings: CNCTC My 330/88, 336 h
Mycobacterium kansasii [4] = test: Antimycobacterial activity against Mycobacterium kansasii CNCTC My 235/80 after 14 days by micromethod; type: functional; settings: CNCTC My 235/80, 336 h
Mycobacterium kansasii [5] = test: Antimycobacterial activity against Mycobacterium kansasii 6509/96 clinical isolate after 14 days by micromethod; type: functional; settings: 6509/96, 336 h
Candida albicans [6] = test: Antifungal activity against Candida albicans ATCC 44859 after 24 hrs by broth microdilution method; type: functional; settings: ATCC 44859, 24 h
Candida albicans [7] = test: Antifungal activity against Candida albicans ATCC 44859 after 48 hrs by broth microdilution method; type: functional; settings: ATCC 44859, 48 h
Candida tropicalis [8] = test: Antifungal activity against Candida tropicalis 156 after 24 hrs by broth microdilution method; type: functional; settings: Candida tropicalis, 156, 24 h
Candida tropicalis [9] = test: Antifungal activity against Candida tropicalis 156 after 48 hrs by broth microdilution method; type: functional; settings: Candida tropicalis, 156, 48 h
Pichia kudriavzevii [10] = test: Antifungal activity against Candida krusei E28 after 24 hrs by broth microdilution method; type: functional; settings: E28, 24 h
Pichia kudriavzevii [11] = test: Antifungal activity against Candida krusei E28 after 48 hrs by broth microdilution method; type: functional; settings: E28, 48 h
Nakaseomyces glabratus [12] = test: Antifungal activity against Candida glabrata 20/I after 24 hrs by broth microdilution method; type: functional
Nakaseomyces glabratus [13] = test: Antifungal activity against Candida glabrata 20/I after 48 hrs by broth microdilution method; type: functional
Trichosporon asahii [14] = test: Antifungal activity against Trichosporon asahii 1188 after 24 hrs by broth microdilution method; type: functional; settings: Trichosporon asahii, 1188, 24 h
Trichosporon asahii [15] = test: Antifungal activity against Trichosporon asahii 1188 after 48 hrs by broth microdilution method; type: functional; settings: Trichosporon asahii, 1188, 48 h
Aspergillus fumigatus [16] = test: Antifungal activity against Aspergillus fumigatus 231 after 24 hrs by broth microdilution method; type: functional; settings: Aspergillus fumigatus, 231, 24 h
Aspergillus fumigatus [17] = test: Antifungal activity against Aspergillus fumigatus 231 after 48 hrs by broth microdilution method; type: functional; settings: Aspergillus fumigatus, 231, 48 h
Lichtheimia corymbifera [18] = test: Antifungal activity against Absidia corymbifera 272 after 24 hrs by broth microdilution method; type: functional; settings: Lichtheimia corymbifera, 272, 24 h
Lichtheimia corymbifera [19] = test: Antifungal activity against Absidia corymbifera 272 after 48 hrs by broth microdilution method; type: functional; settings: Lichtheimia corymbifera, 272, 48 h
[20] = tested on: Trichophyton mentagrophytes; test: Antifungal activity against Trichophyton mentagrophytes 445 after 72 hrs by broth microdilution method; type: functional; settings: Trichophyton mentagrophytes, 445, 72 h
[21] = tested on: Trichophyton mentagrophytes; test: Antifungal activity against Trichophyton mentagrophytes 445 after 120 hrs by broth microdilution method; type: functional; settings: Trichophyton mentagrophytes, 445, 120 h
Staphylococcus aureus [22] = test: Antibacterial activity against Staphylococcus aureus ATCC 6538 after 24 hrs by broth microdilution method; type: functional; settings: ATCC 6538, 24 h
Staphylococcus aureus [23] = test: Antibacterial activity against Staphylococcus aureus ATCC 6538 after 48 hrs by broth microdilution method; type: functional; settings: ATCC 6538, 48 h
Staphylococcus aureus [24] = test: Antibacterial activity against methicillin-resistant Staphylococcus aureus HK5996/08 after 24 hrs by broth microdilution method; type: functional; settings: HK5996/08, 24 h
Staphylococcus aureus [25] = test: Antibacterial activity against methicillin-resistant Staphylococcus aureus HK5996/08 after 48 hrs by broth microdilution method; type: functional; settings: HK5996/08, 48 h
[26] = tested on: Staphylococcus epidermidis; test: Antibacterial activity against Staphylococcus epidermidis HK6996/08 after 24 hrs by broth microdilution method; type: functional; settings: HK6996/08, 24 h
[27] = tested on: Staphylococcus epidermidis; test: Antibacterial activity against Staphylococcus epidermidis HK6996/08 after 48 hrs by broth microdilution method; type: functional; settings: HK6996/08, 48 h
Enterococcus sp. [28] = test: Antibacterial activity against Enterococcus sp. HK14365/08 after 24 hrs by broth microdilution method; type: functional; settings: HK14365/08, 24 h
Enterococcus sp. [29] = test: Antibacterial activity against Enterococcus sp. HK14365/08 after 48 hrs by broth microdilution method; type: functional; settings: HK14365/08, 48 h
Escherichia coli [30] = test: Antibacterial activity against Escherichia coli ATCC 8739 after 24 hrs by broth microdilution method; type: functional; settings: ATCC 8739, 24 h
Escherichia coli [31] = test: Antibacterial activity against Escherichia coli ATCC 8739 after 48 hrs by broth microdilution method; type: functional; settings: ATCC 8739, 48 h
Klebsiella pneumoniae [32] = test: Antibacterial activity against Klebsiella pneumoniae HK11750/08 after 24 hrs by broth microdilution method; type: functional; settings: HK11750/08, 24 h
Klebsiella pneumoniae [33] = test: Antibacterial activity against Klebsiella pneumoniae HK11750/08 after 48 hrs by broth microdilution method; type: functional; settings: HK11750/08, 48 h
Klebsiella pneumoniae [34] = test: Antibacterial activity against extended spectrum beta-lactamase producing Klebsiella pneumoniae HK14368/08 after 24 hrs by broth microdilution method; type: functional; settings: HK14368/08, 24 h
Klebsiella pneumoniae [35] = test: Antibacterial activity against extended spectrum beta-lactamase producing Klebsiella pneumoniae HK14368/08 after 48 hrs by broth microdilution method; type: functional; settings: HK14368/08, 48 h
Pseudomonas aeruginosa [36] = test: Antibacterial activity against Pseudomonas aeruginosa ATCC 9027 after 24 hrs by broth microdilution method; type: functional; settings: ATCC 9027, 24 h
Pseudomonas aeruginosa [37] = test: Antibacterial activity against Pseudomonas aeruginosa ATCC 9027 after 48 hrs by broth microdilution method; type: functional; settings: ATCC 9027, 48 h
[38] = Cytotoxicity against human HuH7 cells assessed as cell viability at 30 uM after 48 hrs by MTS assay relative to control; type: cell-based, Huh-7; settings: read-out: Activity
Huh-7 = test: Cytotoxicity against human HuH7 cells assessed as cell viability after 48 hrs by MTS assay; type: cell-based; settings: Huh-7, 48 h
A-431 = test: Cytotoxicity against human A431 cells assessed as cell viability after 48 hrs by MTS assay; type: cell-based; settings: A-431, 48 h
[39] = Cytotoxicity against human A431 cells assessed as cell viability at 30 uM after 48 hrs by MTS assay relative to control; type: cell-based, A-431; settings: read-out: Activity
MDCK = test: Cytotoxicity against MDCK cells assessed as cell viability after 48 hrs by MTS assay; type: cell-based; settings: Canis lupus familiaris
[40] = Cytotoxicity against MDCK cells assessed as cell viability at 30 uM after 48 hrs by MTS assay relative to control; type: cell-based, Canis lupus familiaris; settings: dog, read-out: Activity
HepG2 = test: Cytotoxicity against human HepG2 cells assessed as cell viability after 48 hrs by MTS assay; type: cell-based; settings: HepG2, 48 h
[41] = Cytotoxicity against human HepG2 cells assessed as cell viability at 30 uM after 48 hrs by MTS assay relative to control; type: cell-based; settings: read-out: Activity
[42] = Selectivity index, ratio of IC50 for human HepG2 cells to MIC for Mycobacterium tuberculosis; type: toxicity; settings: read-out: Selectivity Index
[43] = tested on: Mycobacterium tuberculosis; test: Antimycobacterial activity against Mycobacterium tuberculosis CNCTC My 331/88 after 21 days by micromethod; type: functional; settings: CNCTC My 331/88, 504 h
Mycobacterium kansasii [44] = test: Antimycobacterial activity against Mycobacterium kansasii CNCTC My 235/80 after 21 days by micromethod; type: functional; settings: CNCTC My 235/80, 504 h
Mycobacterium kansasii [45] = test: Antimycobacterial activity against Mycobacterium kansasii CNCTC My 235/80 after 7 days by micromethod; type: functional; settings: CNCTC My 235/80, 168 h
Mycobacterium kansasii [46] = test: Antimycobacterial activity against Mycobacterium kansasii 6509/96 clinical isolate after 21 days by micromethod; type: functional; settings: 6509/96, 504 h
Mycobacterium kansasii [47] = test: Antimycobacterial activity against Mycobacterium kansasii 6509/96 clinical isolate after 7 days by micromethod; type: functional; settings: 6509/96, 168 h

Which MIC (Mycobacterium avium [1]) does the source give for `O=[N+]([O-])c1cc(-n2nnnc2SCc2ccc(Cl)cc2)cc([N+](=O)[O-])c1` here?
Its MIC is 16 µM (≈ 6.28 µg/mL).

And the MIC [2]?
Its MIC is 0.5 µM (≈ 0.196 µg/mL).

And the MIC (Mycobacterium avium [3])?
Its MIC is 8 µM (≈ 3.14 µg/mL).

What about the MIC (Mycobacterium kansasii [4]) of the same molecule?
Its MIC is 2 µM (≈ 0.786 µg/mL).

And the MIC (Mycobacterium kansasii [5])?
Its MIC is 1 µM (≈ 0.393 µg/mL).

And the MIC (Candida albicans [6])?
The MIC was > 500 µM.

What about the MIC (Candida albicans [7]) of the same molecule?
Its MIC is > 500 µM.

What about the MIC (Candida tropicalis [8]) of the same molecule?
The MIC was > 500 µM.

And the MIC (Candida tropicalis [9])?
The MIC was > 500 µM.

What about the MIC (Pichia kudriavzevii [10]) of the same molecule?
Its MIC is > 500 µM.

What about the MIC (Pichia kudriavzevii [11]) of the same molecule?
Its MIC is > 500 µM.

And the MIC (Nakaseomyces glabratus [12])?
The MIC was > 500 µM.

And the MIC (Nakaseomyces glabratus [13])?
Its MIC is > 500 µM.

And the MIC (Trichosporon asahii [14])?
Its MIC is > 500 µM.

What about the MIC (Trichosporon asahii [15]) of the same molecule?
Its MIC is > 500 µM.

What about the MIC (Aspergillus fumigatus [16]) of the same molecule?
Its MIC is > 500 µM.

What about the MIC (Aspergillus fumigatus [17]) of the same molecule?
The MIC was > 500 µM.

What about the MIC (Lichtheimia corymbifera [18]) of the same molecule?
Its MIC is > 500 µM.

What about the MIC (Lichtheimia corymbifera [19]) of the same molecule?
The MIC was > 500 µM.

What about the MIC [20] of the same molecule?
Its MIC is > 500 µM.

What about the MIC [21] of the same molecule?
The MIC was > 500 µM.

What about the MIC (Staphylococcus aureus [22]) of the same molecule?
Its MIC is 125 µM (≈ 49.1 µg/mL).

What about the MIC (Staphylococcus aureus [23]) of the same molecule?
The MIC was 125 µM (≈ 49.1 µg/mL).

What about the MIC (Staphylococcus aureus [24]) of the same molecule?
The MIC was 125 µM (≈ 49.1 µg/mL).

And the MIC (Staphylococcus aureus [25])?
Its MIC is 125 µM (≈ 49.1 µg/mL).

And the MIC [26]?
Its MIC is 500 µM (≈ 196 µg/mL).

And the MIC [27]?
The MIC was 500 µM (≈ 196 µg/mL).

And the MIC (Enterococcus sp. [28])?
The MIC was > 500 µM.

And the MIC (Enterococcus sp. [29])?
The MIC was > 500 µM.

And the MIC (Escherichia coli [30])?
Its MIC is > 500 µM.

And the MIC (Escherichia coli [31])?
Its MIC is > 500 µM.

And the MIC (Klebsiella pneumoniae [32])?
Its MIC is > 500 µM.

What about the MIC (Klebsiella pneumoniae [33]) of the same molecule?
Its MIC is > 500 µM.

And the MIC (Klebsiella pneumoniae [34])?
The MIC was > 500 µM.

What about the MIC (Klebsiella pneumoniae [35]) of the same molecule?
Its MIC is > 500 µM.

What about the MIC (Pseudomonas aeruginosa [36]) of the same molecule?
The MIC was > 500 µM.

And the MIC (Pseudomonas aeruginosa [37])?
Its MIC is > 500 µM.

What about the viability at 48 h, 30 µM [38] of the same molecule?
The viability at 48 h, 30 µM was 115%.

And the IC50 (Huh-7)?
The IC50 was > 30 µM.

And the IC50 (A-431)?
Its IC50 is > 30 µM.

What about the viability at 48 h, 30 µM [39] of the same molecule?
The viability at 48 h, 30 µM was 74%.

And the IC50 (MDCK)?
Its IC50 is > 30 µM.

What about the viability at 48 h, 30 µM [40] of the same molecule?
The viability at 48 h, 30 µM was 85%.

What about the IC50 (HepG2) of the same molecule?
Its IC50 is > 30 µM.

And the viability at 48 h, 30 µM [41]?
Its viability at 48 h, 30 µM is 134%.

What about the selectivity ratio [42] of the same molecule?
The selectivity ratio was > 60.

And the MIC [43]?
Its MIC is 0.5 µM (≈ 0.196 µg/mL).

And the MIC (Mycobacterium kansasii [44])?
Its MIC is 4 µM (≈ 1.57 µg/mL).

What about the MIC (Mycobacterium kansasii [45]) of the same molecule?
The MIC was 1 µM (≈ 0.393 µg/mL).

And the MIC (Mycobacterium kansasii [46])?
The MIC was 1 µM (≈ 0.393 µg/mL).

What about the MIC (Mycobacterium kansasii [47]) of the same molecule?
Its MIC is 0.5 µM (≈ 0.196 µg/mL).
